Tests used:
Type in all cases: functional
NCI-H226 [1] = test: Growth inhibition of human NCI-H226 cells assessed as cell growth at 10 uM after 48 hrs by SRB assay; details: NCI-H226, 48 h, read-out: Activity
SNB-19 = test: Growth inhibition of human SNB19 cells assessed as cell growth at 1 uM after 48 hrs by SRB assay; details: SNB-19, 48 h, read-out: Activity
NCI-H226 [2] = test: Growth inhibition of human NCI-H226 cells assessed as cell growth at 1 mM after 48 hrs by SRB assay; details: NCI-H226, 48 h, read-out: Activity
U-251 = test: Growth inhibition of human U251 cells assessed as cell growth at 1 mM after 48 hrs by SRB assay; details: U-251, 48 h, read-out: Activity
A498 = test: Growth inhibition of human A498 cells after 48 hrs by […] growth inhibition assay; details: A498, 48 h
SF-268 [3] = test: Growth inhibition of human SF268 cells assessed as cell growth at 100 uM after 48 hrs by SRB assay; details: SF-268, 48 h, read-out: Activity
Malme-3M = test: Growth inhibition of human MALME-3M cells after 48 hrs by […] growth inhibition assay
CCRF-CEM = test: Growth inhibition of human CCRF-CEM cells assessed as cell growth at 1 uM after 48 hrs by SRB assay; details: read-out: Activity
NCI-H522 = test: Growth inhibition of human NCI-H522 cells after 48 hrs by […] growth inhibition assay; details: NCI-H522, 48 h
UO-31 [4] = test: Growth inhibition of human UO31 cells after 48 hrs by […] growth inhibition assay; details: UO-31, 48 h
UACC-257 = test: Growth inhibition of human UACC257 cells assessed as cell growth at 100 uM after 48 hrs by SRB assay; details: UACC-257, 48 h, read-out: Activity
[5] = Growth inhibition of human […] cells after 48 hrs by […] growth inhibition assay
SF-539 = test: Growth inhibition of human SF539 cells assessed as cell growth at 0.1 uM after 48 hrs by SRB assay; details: SF-539, 48 h, read-out: Activity
HT-29 = test: Growth inhibition of human HT-29 cells assessed as cell growth at 100 uM after 48 hrs by SRB assay; details: HT-29, 48 h, read-out: Activity
UO-31 [6] = test: Growth inhibition of human UO31 cells assessed as cell growth at 100 uM after 48 hrs by SRB assay; details: UO-31, 48 h, read-out: Activity
IGROV-1 = test: Growth inhibition of human IGROV1 cells assessed as cell growth at 0.1 uM after 48 hrs by SRB assay; details: IGROV-1, 48 h, read-out: Activity
MDA-MB-231 [7] = test: Growth inhibition of human MDA-MB-231 cells assessed as cell growth at 10 uM after 48 hrs by SRB assay; details: MDA-MB-231, 48 h, read-out: Activity
HCT-15 = test: Growth inhibition of human HCT15 cells assessed as cell growth at 0.1 uM after 48 hrs by SRB assay; details: HCT-15, 48 h, read-out: Activity
A549 = test: Growth inhibition of human A549 cells assessed as cell growth at 100 uM after 48 hrs by SRB assay; details: A549, 48 h, read-out: Activity
KM12 [8] = test: Growth inhibition of human KM12 cells assessed as cell growth at 100 uM after 48 hrs by SRB assay; details: KM12, 48 h, read-out: Activity
M14 = test: Growth inhibition of human M14 cells assessed as cell growth at 10 uM after 48 hrs by SRB assay; details: M14, 48 h, read-out: Activity
KM12 [9] = test: Growth inhibition of human KM12 cells assessed as cell growth at 1 uM after 48 hrs by SRB assay; details: KM12, 48 h, read-out: Activity
SF-268 [10] = test: Growth inhibition of human SF268 cells assessed as cell growth at 1 uM after 48 hrs by SRB assay; details: SF-268, 48 h, read-out: Activity
RXF 393 = test: Growth inhibition of human RXF393 cells assessed as cell growth at 1 uM after 48 hrs by SRB assay; details: RXF 393, 48 h, read-out: Activity
KM12 [11] = test: Growth inhibition of human KM12 cells after 48 hrs by […] growth inhibition assay; details: KM12, 48 h
MDA-MB-231 [12] = test: Growth inhibition of human MDA-MB-231 cells assessed as cell growth at 0.1 uM after 48 hrs by SRB assay; details: MDA-MB-231, 48 h, read-out: Activity
EKVX = test: Growth inhibition of human EKVX cells assessed as cell growth at 0.1 uM after 48 hrs by SRB assay; details: read-out: Activity
SF-295 [13] = test: Growth inhibition of human SF295 cells after 48 hrs by […] growth inhibition assay; details: SF-295, 48 h
KM12 [14] = test: Growth inhibition of human KM12 cells assessed as cell growth at 1 mM after 48 hrs by SRB assay; details: KM12, 48 h, read-out: Activity
SK-MEL-2 = test: Growth inhibition of human SK-MEL-2 cells assessed as cell growth at 1 uM after 48 hrs by SRB assay; details: SK-MEL-2, 48 h, read-out: Activity
SK-MEL-5 = test: Growth inhibition of human SK-MEL-5 cells assessed as cell growth at 10 uM after 48 hrs by SRB assay; details: SK-MEL-5, 48 h, read-out: Activity
OVCAR-4 = test: Growth inhibition of human OVCAR4 cells assessed as cell growth at 1 uM after 48 hrs by SRB assay; details: OVCAR-4, 48 h, read-out: Activity
SF-295 [15] = test: Growth inhibition of human SF295 cells assessed as cell growth at 1 uM after 48 hrs by SRB assay; details: SF-295, 48 h, read-out: Activity
[16] = read-out: LC50 (the source's name)
[17] = read-out: pLC50 (the source's name) (converted)

`CCOC(=O)C[C@H]1[C@@H](O[Si](C)(C)C(C)(C)C)[C@H](n2cnc3c(NC(=O)Nc4ccccc4)ncnc32)O[C@@H]1CNC(=O)NC` gave a growth at 10 µM (NCI-H226 [1]) of 102%, a growth at 1 µM (SNB-19) of 95% and a growth at 1000 µM (NCI-H226 [2]) of 55%. The growth at 1000 µM (U-251) was -61%, the GI50 (A498; read-out: GI50) was 3.34 µM and the CC50 (A498; [16]) was over 100 µM. For the same molecule, the TGI (A498; read-out: TGI) was 17.1 µM, the GI50 (A498; read-out: pGI50 (converted)) was 3.31 µM and the CC50 (A498; [17]) was over 100 µM. For the same molecule, the TGI (A498; read-out: pTGI (converted)) was 17 µM, the growth at 100 µM (SF-268 [3]) was 40% and the GI50 (Malme-3M; read-out: GI50) was 10.3 µM. The LC50 (concentration killing 50% of cells) (Malme-3M; read-out: LC50) was over 100 µM, the TGI (Malme-3M; read-out: TGI) was over 100 µM and the GI50 (Malme-3M; read-out: pGI50 (converted)) was 10.2 µM. It also gave an LC50 (concentration killing 50% of cells) (Malme-3M; read-out: pLC50 (converted)) of over 100 µM, a TGI (Malme-3M; read-out: pTGI (converted)) of over 100 µM and a growth at 1 µM (CCRF-CEM) of 100%. It also gave a GI50 (NCI-H522; read-out: GI50) of 4.36 µM, a CC50 (NCI-H522; [16]) of over 100 µM and a TGI (NCI-H522; read-out: TGI) of 85.7 µM. The GI50 (NCI-H522; read-out: pGI50 (converted)) was 4.37 µM, the CC50 (NCI-H522; [17]) was over 100 µM and the TGI (NCI-H522; read-out: pTGI (converted)) was 85.1 µM. For the same molecule, the GI50 (UO-31 [4]; read-out: GI50) was 12.1 µM, the CC50 (UO-31 [4]; [16]) was 71.7 µM and the TGI (UO-31 [4]; read-out: TGI) was 29.5 µM. For the same molecule, the GI50 (UO-31 [4]; read-out: pGI50 (converted)) was 12 µM, the CC50 (UO-31 [4]; [17]) was 72.4 µM and the TGI (UO-31 [4]; read-out: pTGI (converted)) was 29.5 µM. It also gave a growth at 100 µM (UACC-257) of 34%, a GI50 ([5]; read-out: GI50) of 1.09 µM and a CC50 [5, 16] of 59 µM. The TGI ([5]; read-out: TGI) was 4.57 µM, the GI50 ([5]; read-out: pGI50 (converted)) was 1.1 µM and the CC50 [5, 17] was 58.9 µM. The TGI ([5]; read-out: pTGI (converted)) was 4.57 µM, the growth at 0.1 µM (SF-539) was 97% and the growth at 100 µM (HT-29) was 17%. The growth at 100 µM (UO-31 [6]) was 61%, the growth at 0.1 µM (IGROV-1) was 94% and the growth at 10 µM (MDA-MB-231 [7]) was 94%. For the same molecule, the growth at 0.1 µM (HCT-15) was 99%, the growth at 100 µM (A549) was 23% and the growth at 100 µM (KM12 [8]) was 13%. For the same molecule, the growth at 10 µM (M14) was 81%, the growth at 1 µM (KM12 [9]) was 112% and the growth at 1 µM (SF-268 [10]) was 103%. It also gave a growth at 1 µM (RXF 393) of 97%, a GI50 (KM12 [11]; read-out: GI50) of 3.95 µM and a CC50 (KM12 [11]; [16]) of over 100 µM. It also gave a TGI (KM12 [11]; read-out: TGI) of 20.9 µM, a GI50 (KM12 [11]; read-out: pGI50 (converted)) of 3.98 µM and a CC50 (KM12 [11]; [17]) of over 100 µM. It also gave a TGI (KM12 [11]; read-out: pTGI (converted)) of 20.9 µM, a growth at 0.1 µM (MDA-MB-231 [12]) of 101% and a growth at 0.1 µM (EKVX) of 92%. It also gave a GI50 (SF-295 [13]; read-out: GI50) of 5.73 µM, an LC50 (SF-295 [13]; read-out: LC50) of over 100 µM and a TGI (SF-295 [13]; read-out: TGI) of over 100 µM. It also gave a GI50 (SF-295 [13]; read-out: pGI50 (converted)) of 5.75 µM, an LC50 (SF-295 [13]; read-out: pLC50 (converted)) of over 100 µM and a TGI (SF-295 [13]; read-out: pTGI (converted)) of over 100 µM. The growth at 1000 µM (KM12 [14]) was -28%, the growth at 1 µM (SK-MEL-2) was 94% and the growth at 10 µM (SK-MEL-5) was 89%. The growth at 1 µM (OVCAR-4) was 103% and the growth at 1 µM (SF-295 [15]) was 91%.

— ChEMBL document CHEMBL1681651, “A broad spectrum anticancer nucleoside with selective toxicity against human colon cells in vitro” (2011)
